Read-outs that look alike come from different tables or passages of the source.
How the values were obtained:
[1] = molecular target: T1, full-length beta-Catenin (Uniprot ID P35222) (Homo sapiens, UniProt P35222); experiment: Fluorescence polarization IC50 (beta-catenin / 5FAM-TCF4 10-53 competition); assay type: binding
T1 construct: 10 nM full-length beta-Catenin (Uniprot ID P35222)
T1 sequence (P35222 1-781): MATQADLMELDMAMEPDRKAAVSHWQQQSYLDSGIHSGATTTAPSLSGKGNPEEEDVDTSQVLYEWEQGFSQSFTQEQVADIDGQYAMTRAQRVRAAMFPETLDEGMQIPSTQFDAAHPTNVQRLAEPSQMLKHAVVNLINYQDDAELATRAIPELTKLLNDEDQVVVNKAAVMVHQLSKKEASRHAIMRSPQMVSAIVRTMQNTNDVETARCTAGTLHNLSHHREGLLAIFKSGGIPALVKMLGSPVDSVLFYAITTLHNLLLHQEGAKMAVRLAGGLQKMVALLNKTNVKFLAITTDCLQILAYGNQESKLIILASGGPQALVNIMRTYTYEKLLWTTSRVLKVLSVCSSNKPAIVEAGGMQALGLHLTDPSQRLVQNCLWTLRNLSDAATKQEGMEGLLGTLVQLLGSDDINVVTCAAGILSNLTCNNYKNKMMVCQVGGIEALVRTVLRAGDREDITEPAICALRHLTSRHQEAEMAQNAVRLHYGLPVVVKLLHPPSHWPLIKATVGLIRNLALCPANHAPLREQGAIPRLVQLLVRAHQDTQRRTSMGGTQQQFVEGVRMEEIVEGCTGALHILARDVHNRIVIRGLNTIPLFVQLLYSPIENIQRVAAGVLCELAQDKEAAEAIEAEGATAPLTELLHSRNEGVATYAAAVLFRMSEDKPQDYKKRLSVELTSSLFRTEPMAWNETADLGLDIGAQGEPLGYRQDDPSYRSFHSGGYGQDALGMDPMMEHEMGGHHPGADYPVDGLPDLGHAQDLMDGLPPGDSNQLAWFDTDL

[2] = molecular target: T2, full-length B-Catenin (Uniprot ID P35222) (Homo sapiens, UniProt P35222); experiment: Alphascreen binding assay (beta-catenin / biotin-TCF4 10-53)
T2 construct: 65 nM full-length B-Catenin (Uniprot ID P35222)
T2 sequence (P35222 1-781): T1 sequence (P35222 1-781)
Summary of the method: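 AlphaScreen (Ni-chelate beads) competition in 50 mM Tris pH 8.0, 250 mM NaCl with detergents and 0.1% BSA. Peptide titrated 10 uM–5 nM against 65 nM human β-catenin bound to 10 nM biotinylated TCF4 10-53, 15 min then 60 min with beads, both at 20 °C; 1:1 Hill-slope fit.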

CHI Log D procedure = assay type: physicochemical; settings: for CHI Log D: pH 7.4; for chromatographic logD: pH 7.4, CHI Log D
[3] = Table E2-1, read-out: beta-Catenin FP IC50
[4] = fluorescence polarization, beta-catenin, read-out: FP EC50

IC50 [1, 3] | IC50 [1, 4] | EC50 [2] | CHI Log D (CHI Log D procedure) | chromatographic logD (CHI Log D procedure) | SMILES
139 nM |  | 41 nM |  | 2.38 | CC(=O)N1CCC[C@]12CC=CCCCC1(CCCC=CCCCCCC[C@@](C)(C(=O)N[C@@H](Cc3ccccc3)C(=O)N[C@@H](Cc3csc4ccccc34)C(=O)N[C@@H](CCC(N)=O)C(N)=O)NC(=O)[C@H](C(C)C)NC(=O)[C@H](Cc3ccccc3)NC(=O)[C@H](C)NC(=O)[C@H](C)NC(=O)[C@H](CN(CC(=O)O)CC(F)(F)F)NC(=O)[C@H](CC(=O)O)NC1=O)NC(=O)[C@H](C)NC(=O)[C@H](CC(=O)O)NC2=O (stereo partly drawn) [I-293, Ac-PL3-Asp-Ala-B5-Asp-TfeGA-Ala-Ala-Phe-Val-S8-Phe-BztA-Gln-NH2]
4630 nM | 4630 nM | 121 nM | 2.001 |  | CC(=O)N1CCC[C@]12CC=CCCCC1(CCCC=CCCCCCC[C@@](C)(C(=O)N[C@@H](Cc3ccccc3F)C(=O)N[C@@H](Cc3c[nH]c4ccccc34)C(=O)N[C@@H](CCC(N)=O)C(N)=O)NC(=O)[C@H](C(C)C)NC(=O)[C@H](Cc3ccccc3)NC(=O)[C@H](C)NC(=O)[C@H](C)NC(=O)[C@H](CC(=O)O)NC(=O)[C@H](CC(=O)O)NC1=O)NC(=O)[C@H](C)NC(=O)[C@H](CC(=O)O)NC2=O (stereo partly drawn) [I-318, Ac-PL3-Asp-Ala-B5-Asp-Asp-Ala-Ala-Phe-Val-S8-2FF-Trp-Gln-NH2]
3120 nM | 3120 nM | 181 nM | 2.05 |  | CC(=O)N1CCC[C@]12CC=CCCCC1(CCCC=CCCCCCC[C@@](C)(C(=O)N[C@@H](Cc3ccccc3)C(=O)N[C@@H](Cc3c[nH]c4ccccc34)C(=O)N[C@@H](CCC(N)=O)C(N)=O)NC(=O)[C@H](C(C)C)NC(=O)[C@H](Cc3ccc(Cl)cc3)NC(=O)[C@H](C)NC(=O)[C@H](C)NC(=O)[C@H](CC(=O)O)NC(=O)[C@H](CC(=O)O)NC1=O)NC(=O)[C@H](C)NC(=O)[C@H](CC(=O)O)NC2=O (stereo partly drawn) [I-309, Ac-PL3-Asp-Ala-B5-Asp-Asp-Ala-Ala-4C1F-Val-S8-Phe-Trp-Gln-NH2]
1420 nM | 1420 nM | 54 nM | 2.019 |  | CC(=O)N1CCC[C@]12CC=CCCCC1(CCCC=CCCCCCC[C@@](C)(C(=O)N[C@@H](Cc3ccccc3F)C(=O)N[C@@H](Cc3c[nH]c4ccccc34)C(=O)N[C@@H](CCC(N)=O)C(N)=O)NC(=O)[C@H](C(C)C)NC(=O)[C@H](Cc3ccccc3)NC(=O)[C@H](C)NC(=O)[C@H](C)NC(=O)[C@H](CC(=O)O)NC(=O)[C@H](CC(=O)O)NC1=O)NC(=O)[C@H](C)NC(=O)[C@H](CC(=O)O)NC2=O (stereo partly drawn) [I-319, Ac-PL3-Asp-Ala-B5-Asp-Asp-Ala-Ala-Phe-Val-S8-2FF-Trp-Gln-NH2]
1300 nM |  | 189 nM |  | 2 | CC(=O)N1CCC[C@]12CC=CCCCC1(CCCC=CCCCCCC[C@@](C)(C(=O)N[C@@H](Cc3ccccc3)C(=O)N[C@@H](Cc3csc4ccccc34)C(=O)N[C@@H](C)C(N)=O)NC(=O)[C@H](CCC(N)=O)NC(=O)[C@H](Cc3ccccc3)NC(=O)[C@H](C)NC(=O)[C@H](C)NC(=O)[C@H](CC(=O)O)NC(=O)[C@H](CC(=O)O)NC1=O)NC(=O)[C@H](CCO)NC(=O)[C@H](CC(=O)O)NC2=O (stereo partly drawn) [I-299, Ac-PL3-Asp-Hse-B5-Asp-Asp-Ala-Ala-Phe-Gln-S8-Phe-BztA-Ala-NH2]

The next lines start with the compound.

SMILES | IC50 [1, 3] | IC50 [1, 4] | EC50 [2] | CHI Log D (CHI Log D procedure) | chromatographic logD (CHI Log D procedure)
CC(=O)N1CCC[C@]12CC=CCCCC1(CCCC=CCCCCCC[C@@](C)(C(=O)N[C@@H](Cc3ccccc3)C(=O)N[C@@H](Cc3c[nH]c4ccccc34)C(=O)N[C@@H](C)C(N)=O)NC(=O)[C@H](C(C)C)NC(=O)[C@H](Cc3ccccc3)NC(=O)[C@H](C)NC(=O)[C@H](C)NC(=O)[C@H](CC(=O)O)NC(=O)[C@H](CC(=O)O)NC1=O)NC(=O)[C@H](C)NC(=O)[C@H](CC(=O)O)NC2=O (stereo partly drawn) [I-292, Ac-PL3-Asp-Ala-B5-Asp-Asp-Ala-Ala-Phe-Val-S8-Phe-Trp-Ala-NH2] | 1870 nM | 1870 nM | 187 nM | 2.208 | 
CC[C@H](C)[C@H](NC(=O)[C@H](CC(=O)O)NC(=O)[C@H](C)NC(C)=O)C(=O)N[C@]1(C)CCN(C)C(=O)OCC=CCCCCC[C@@](C)(C(=O)N[C@@H](Cc2ccccc2)C(=O)N[C@@H](Cc2c[nH]c3ccccc23)C(=O)N[C@@H](C)C(N)=O)NC(=O)[C@H](CCC(N)=O)NC(=O)[C@H](Cc2ccccc2)NC(=O)[C@H](C)NC(=O)[C@H](C)NC(=O)[C@H](CCC(=O)O)NC(=O)[C@H](CC(=O)O)NC1=O [I-153, Ac-Ala-Asp-Ile-RdN-Asp-Glu-Ala-Ala-Phe-Gln-S7-Phe-Trp-Ala-NH2] | 2140 nM |  | 153 nM |  | 1.32
CC[C@H](C)[C@@H]1NC(=O)[C@H](CC(=O)O)NC(=O)[C@]2(CC=CCCCC3(CCCC=CCCCCCC[C@@](C)(C(=O)N[C@@H](Cc4ccccc4)C(=O)N[C@@H](Cc4c[nH]c5ccccc45)C(N)=O)NC(=O)[C@H](CCC(N)=O)NC(=O)[C@H](Cc4ccccc4)NC(=O)[C@H](C)NC(=O)[C@H](C)NC(=O)[C@H](CCC(=O)O)NC(=O)[C@H](CC(=O)O)NC3=O)NC1=O)CCCN2C(C)=O (stereo partly drawn) [I-191, Ac-PL3-Asp-Ile-B5-Asp-Glu-Ala-Ala-Phe-Gln-S8-Phe-Trp-NH2] | 1660 nM | 1660 nM | 240 nM | 2.412 | 
CC(=O)N1CCC[C@]12CC=CCCCC1(CCCC=CCCCCCC[C@@](C)(C(=O)N[C@@H](Cc3ccccc3)C(=O)N[C@@H](Cc3c[nH]c4ccccc34)C(=O)N[C@@H](Cc3c[nH]cn3)C(N)=O)NC(=O)[C@H](CCC(N)=O)NC(=O)[C@H](Cc3ccccc3)NC(=O)[C@H](C)NC(=O)[C@H](C)NC(=O)[C@H](CCC(=O)O)NC(=O)[C@H](CC(=O)O)NC1=O)NC(=O)[C@H](C)NC(=O)[C@H](CC(=O)O)NC2=O (stereo partly drawn) [I-178, Ac-PL3-Asp-Ala-B5-Asp-Glu-Ala-Ala-Phe-Gln-S8-Phe-Trp-His-NH2] | 1630 nM | 1630 nM | 152 nM | 1.913 | 
COc1ccc(C[C@@H]2NC(=O)[C@H](C)NC(=O)[C@H](C)NC(=O)[C@H](CCC(=O)O)NC(=O)[C@H](CC(=O)O)NC(=O)C3(CCCC=CCCCCCC[C@@](C)(C(=O)N[C@@H](Cc4ccccc4)C(=O)N[C@@H](Cc4c[nH]c5ccccc45)C(=O)N[C@@H](CCC(N)=O)C(N)=O)NC(=O)[C@H](C(C)C)NC2=O)CCCC=CC[C@]2(CCCN2C(C)=O)C(=O)N[C@@H](CC(=O)O)C(=O)N[C@@H](C)C(=O)N3)cc1 (stereo partly drawn) [I-217, Ac-PL3-Asp-Ala-B5-Asp-Glu-Ala-Ala-MeTyr-Val-S8-Phe-Trp-Gln-NH2] | 1960 nM | 1960 nM | 90 nM | 2.012 | 
CC(=O)N1CCC[C@]12CC=CCCCC1(CCCC=CCCCCCC[C@@](C)(C(=O)N[C@@H](Cc3c[nH]cn3)C(=O)N[C@@H](Cc3c[nH]c4ccccc34)C(=O)N[C@@H](CCC(N)=O)C(N)=O)NC(=O)[C@H](C(C)C)NC(=O)[C@H](Cc3ccccc3)NC(=O)[C@H](C)NC(=O)[C@H](C)NC(=O)[C@H](CC(=O)O)NC(=O)[C@H](CC(=O)O)NC1=O)NC(=O)[C@H](C)NC(=O)[C@H](CC(=O)O)NC2=O (stereo partly drawn) [I-285, Ac-PL3-Asp-Ala-B5-Asp-Asp-Ala-Ala-Phe-Val-S8-His-Trp-Gln-NH2] | 5000 nM |  | 246 nM |  | 1.49
CC[C@H](C)[C@H](NC(=O)[C@H](CC(=O)O)NC(=O)[C@H](C)NC(C)=O)C(=O)N[C@]1(C)CCN(C)C(=O)OCC=CCCCCC[C@@](C)(C(=O)N[C@@H](Cc2ccccc2)C(=O)N[C@@H](Cc2c[nH]c3ccccc23)C(=O)N[C@@H](Cc2c[nH]cn2)C(N)=O)NC(=O)[C@H](CCC(N)=O)NC(=O)[C@H](Cc2ccccc2)NC(=O)[C@H](C)NC(=O)[C@H](C)NC(=O)[C@H](CC(=O)O)NC(=O)[C@H](CC(=O)O)NC1=O [I-64, Ac-Ala-Asp-Ile-RdN-Asp-Asp-Ala-Ala-Phe-Gln-S7-Phe-Trp-His-NH2] | 4250 nM | 4250 nM | 650 nM | 1.222 | 
CC(=O)N1CCC[C@]12CC=CCCCC1(CCCC=CCCCCCC[C@@](C)(C(=O)N[C@@H](Cc3cccc4ccccc34)C(=O)N[C@@H](Cc3c[nH]c4ccccc34)C(=O)N[C@@H](CCC(N)=O)C(N)=O)NC(=O)[C@H](C(C)C)NC(=O)[C@H](Cc3ccccc3)NC(=O)[C@H](C)NC(=O)[C@H](C)NC(=O)[C@H](CC(=O)O)NC(=O)[C@H](CC(=O)O)NC1=O)NC(=O)[C@H](C)NC(=O)[C@H](CC(=O)O)NC2=O (stereo partly drawn) [I-276, Ac-PL3-Asp-Ala-B5-Asp-Asp-Ala-Ala-Phe-Val-S8-1NapA-Trp-Gln-NH2] | 3430 nM | 3430 nM | 329 nM | 2.207 | 
